The source of these data is patent US11564913B2, “Compositions and methods for treating cancer” (Children's Hospital Medical Center, priority 2019, dated 2023).

One experiment has as its system T47D cells. As to the kind of experiment: Cell spreading on fibronectin. Particulars: 0-3 μM, 30 min. It counts as cell-based. The method, then: (§1) FIG. 6: IODVA1 inhibits cell-substratum and cell-cell interactions. (A) IODVA1 impedes spreading of MCF7 and MDA-MB-231 cells on fibronectin. MCF7, T47D, and MDA-MB-231 cells were incubated on fibronectin coated coverslips for 10 min, then further incubated with the indicated concentrations of IODVA1 for 30 min in serum-free media, fixed and observed by bright field microscopy. Areas of single cells were calculated from 6 random fields (no less than 300 cells total per treatment group). Results shown are mean±s.e.m. of a single experiment and are representative of three independent experiments. (B) Effects of IODVA1 treatment on spheroid formation in MCF10A, MCF7, T47D, and MDA-MB-231 cells. […] Aggregates and spheroids were dissociated with accutase and trituration, and the number of live cells was determined by trypan blue exclusion. […]
(§2) Applicants assessed if IODVA1 interferes with cell spreading on the extracellular matrix, an event that is also governed by the rearrangement of the actin cytoskeleton. […] No changes in the area in T47D cells were detected, although more rounded cells in the presence of IODVA1 were observed.
(§3) For cell spreading, MDA-MB-231, MCF7 and T47D were seeded on fibronectin-coated coverslips in serum-free media. […] Six random fields were imaged under 20× objective and cell area of individual cells were quantified to assess the degree of spreading (ImageJ). […]

A further experiment relates to MCF7 cells. As to the kind of experiment: Cell spreading on fibronectin. It counts as cell-based. Particulars: 30 min exposure, serum-free. The method, then:
as §1, §2, §3

Another experiment has as its system NIH-3T3 cells. Put plainly: PDGF-induced circular dorsal ruffle (CDR) formation. It counts as cell-based. Particulars: 0-3 μM for 1 h, PDGF for 10 min.
Experiment [1] deals with MDA-MB-231 cells expressing scrambled shRNA. Put plainly: Viability and proliferation, trypan blue exclusion. It counts as cell-based, human. Particulars: 0.1-1 μM.

For `OC1(c2ccccn2)N=C(Nc2nc3ccccc3[nH]2)N=C1c1ccccn1` (stereo not shown) [IODVA1, (Z)-2-((1H-benzo[d]imidazol-2-yl)imino)-4,5-di(pyridin-2-yl)-2,5-dihydro-1H-imidazol-5-ol], the “changes in cell area” value in the experiment with T47D cells is “No changes”. Further, the “concentration at which spreading is interfered with (decrease in cell area)” value with MCF7 cells stood at 0.3 µM. In addition, the CDR formation entry in the experiment on NIH-3T3 cells is listed as “inhibited”. Besides, the viability and proliferation result in experiment [1] is “reduces, in a dose-dependent manner”.
